{"source": "patent US9943501B2", "about": "(KOJUN JAPAN CO., LTD., priority 2014, dated 2018)", "key": {"[1]": {"biological_target": "T1, human-derived PPARγ ligand-binding domain (Homo sapiens, UniProt P37231)", "T1 construct": "expressed in transfected cells; host or cells: CV-1 cells (African green monkey kidney-derived)", "T1 sequence (P37231 238-503 limits assumed)": "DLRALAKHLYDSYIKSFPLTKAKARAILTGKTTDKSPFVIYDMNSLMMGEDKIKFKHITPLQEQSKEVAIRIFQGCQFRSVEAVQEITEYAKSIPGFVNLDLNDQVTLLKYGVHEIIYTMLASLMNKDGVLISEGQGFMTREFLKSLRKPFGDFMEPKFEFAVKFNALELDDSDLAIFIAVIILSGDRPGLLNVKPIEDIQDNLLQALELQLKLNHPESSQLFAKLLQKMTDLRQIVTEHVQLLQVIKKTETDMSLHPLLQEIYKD", "assay": "PPARγ activation test (GAL4 chimera / luciferase reporter in CV-1 cells)", "type": "cell-based", "conditions": "for PPARγ ligand activity, ratio (%) of the activity of each synthesized product to the activity of the control substance (DMSO): control = 100", "method": "A measurement method for the PPAR activation test in Examples below were conducted as described below.\n(1) PPARγ Activation Test\nA plasmid pM-PPARγ for the expression of a chimeric protein composed of a human-derived PPARγ ligand-binding domain and a DNA-binding domain of a yeast-derived GAL4 transcription factor, and a plasmid p4×UASg-tk-luc containing a Cypridina-derived luciferase structural gene linked downstream of a GAL4 responsive sequence designed such that its expression was controlled by this chimeric protein, were prepared. Also, a Renilla-derived luciferase expression plasmid pRL-CMV having a viral expression promoter for constitutive intracellular expression was prepared as a plasmid for the correction of transfection efficiency. On the other hand, DMEM containing 10% FBS was used as a medium for CV-1 cells (African green monkey kidney-derived). The CV-1 cells were seeded at 4.5×10^5 cells over a 100-mm Petri dish and cultured in an incubator at 37° C. in a 5% CO2 environment.\n(1-2) Transformation of CV-1 Cell\nThe CV-1 cells thus cultured for 24 hours were cotransfected with 2.0 μg of pM-PPARγ, 4.0 μg of p4×UASg-tk-luc, and 0.04 μg of pRL-CMV to transform the CV-1 cells. The transformation was carried out by the liposome method using LipofectAMINE(R) Reagent (a product of Invitrogen Corp.). After the transformation operation, the cells were cultured at 37° C. for 3.5 hours in a 5% CO2 environment.\n(1-3) Addition of Test Sample\nThe CV-1 cells thus incubated were recovered by trypsin treatment, and […] thereof was inoculated at a concentration of 1×10^5 cells/mL to a 96-well plate. Each test sample was diluted with DMEM containing 4% FBS to adjust its concentration to twice the final concentration, and […] thereof was added to the 96-well plate mentioned above. DMSO was used as a control substance. After the addition of the test sample or the control substance (DMSO), the mixture was incubated at 37° C. for 24 hours in a 5% CO2 environment.\n(1-4) Measurement of Luciferase Activity\nThe luciferase activity was measured using Dual-Luciferase(R) Reporter Assay System (a product of Promega K.K.). The culture solution was removed from the 96-well plate. The cells were washed with PBS(−), and moisture was removed therefrom using a paper towel. To the cells, […] of a cell lysis solution (Passive Lysis Buffer) was added, and the 96-well plate was shaken for 15 minutes. The cell extract was transferred at […] to a 96-well luminoplate. A luminescent substrate solution was added thereto at […]. The luminescence intensity based on the luciferase was measured for a measurement time set to 10 seconds using a luminometer (Micro Lumat Plus, a product of Berthold Japan Co., Ltd.).\nThe PPARγ-activating effect of the test sample was evaluated on the basis of a ratio (%) relative to controls. In order to correct transfection efficiency, the measured Cypridina luciferase activity value (A) was divided by the measured Renilla luciferase activity value (B) to determine a value (A/B). The average A/B value of the control group was calculated and defined as 100. The A/B value of the test sample was calculated, and the ratio (%) of this value to the average value of the controls was used as the ability of the test sample to activate PPARγ.\nTheir PPARγ ligand activity was measured in the same way as in Example 7 except that the incubation time after the test sample addition was set to 48 hours. The values shown in the table below and the ordinate of the drawing depict the ratio (%) of the activity of each synthesized product to the activity of the control substance (DMSO). In Table 1 and FIG. 13, these various butenolide compounds used as test samples were each indicated by the functional group of R^2 in the formula (1)."}, "[2]": {"test_system": "liver (hepatocytes) of C57BL/6J mice fed with a high-fat diet", "assay": "Influence of administration on liver tissue (histopathological examination)", "type": "in vivo, mouse", "conditions": "for deposition of fat droplets in the hepatocytes: 12 weeks, high-fat diet", "excerpt": "In Example 13, the liver was collected during the collection of fat tissues from each individual and histopathologically examined. The findings from the histopathological examination were as described below.\nFor the individuals of the normal group, the deposition of fat droplets was not observed in the hepatocytes, whereas only the very mild infiltration of inflammatory cells was observed."}, "[3]": {"test_system": "C57BL/6J mice fed with a high-fat diet", "assay": "Insulin in blood of dietary-induced obesity mouse model", "type": "in vivo", "conditions": "administration groups, particularly the low-dose group; 85 days; FIG. 16", "method": "For each individual of the male C57BL/6J mice after a lapse of 85 days into the test of Example 9, blood was collected from the abdominal vena cava using a syringe supplemented with heparin under anesthesia with 2% isoflurane. The amount of blood collected was set to approximately 0.8 mL. The collected blood was stored under ice cooling until centrifugation. After centrifugation (conditions: 4° C., approximately 1800×g, 10 min), the upper layer was recovered to obtain plasma. The plasma was dispensed to sampling tubes and cryopreserved until measurement. The mouse adiponectin concentration contained in the mouse plasma obtained from each individual was measured using a commercially available ELISA kit, and the average adiponectin concentration of each test group was determined.\nIn Example 10, the amount of […] insulin contained in the mouse plasma obtained from each individual was measured using a commercially available ELISA kit, and the average insulin concentration of each test group was determined. The ordinate of the drawing depicts the insulin concentration (ng/mL) in the mouse plasma. The test group indicated by each bar of the bar graph is the same as in FIG. 15 mentioned above."}}}
{"smiles": "O=C1C=C(c2ccccc2)C(O)O1", "note": "(centres unmarked) [5H4PB, 5-hydroxy-4-phenylbutenolide]", "values": [{"measurement": "PPARγ ligand activity of butenolide compounds (in words)", "setting": "[1]; Example 8, incubation 48 hours, Table 1 and FIG. 13", "result": "high activity in a low concentration range"}, {"measurement": "PPARγ ligand activity of synthesized product", "setting": "[1]; final concentration 3.5 μM, incubation 24 hours, FIG. 12", "result": "high PPARγ ligand activity"}, {"measurement": "PPARγ ligand activity, ratio (%) of the activity of each synthesized product to the activity of the control substance (DMSO)", "setting": "[1]; test sample concentration 0.032 μg/mL, incubation 48 hours", "result": 100, "unit": "%"}, {"measurement": "PPARγ ligand activity, ratio (%) of the activity of each synthesized product to the activity of the control substance (DMSO)", "setting": "[1]; test sample concentration 0.08 μg/mL, incubation 48 hours", "result": 80, "unit": "%"}, {"measurement": "PPARγ ligand activity, ratio (%) of the activity of each synthesized product to the activity of the control substance (DMSO)", "setting": "[1]; test sample concentration 0.16 μg/mL, incubation 48 hours", "result": 120, "unit": "%"}, {"measurement": "PPARγ ligand activity, ratio (%) of the activity of each synthesized product to the activity of the control substance (DMSO)", "setting": "[1]; test sample concentration 0.4 μg/mL, incubation 48 hours", "result": 120, "unit": "%"}, {"measurement": "PPARγ ligand activity, ratio (%) of the activity of each synthesized product to the activity of the control substance (DMSO)", "setting": "[1]; test sample concentration 0.8 μg/mL, incubation 48 hours, * = twice or more vs control, p<0.05", "result": "220* %"}, {"measurement": "PPARγ ligand activity, ratio (%) of the activity of each synthesized product to the activity of the control substance (DMSO)", "setting": "[1]; test sample concentration 2 μg/mL, incubation 48 hours, * = twice or more vs control, p<0.05", "result": "370* %"}, {"measurement": "PPARγ ligand activity, ratio (%) of the activity of each synthesized product to the activity of the control substance (DMSO)", "setting": "[1]; test sample concentration 4 μg/mL, incubation 48 hours, * = twice or more vs control, p<0.05", "result": "520* %"}, {"measurement": "PPARγ ligand activity, ratio (%) of the activity of each synthesized product to the activity of the control substance (DMSO)", "setting": "[1]; test sample concentration 10 μg/mL, incubation 48 hours, * = twice or more vs control, p<0.05", "result": "710* %"}, {"measurement": "deposition of fat droplets in the hepatocytes", "setting": "[2]; 0.037 μg/kg/day", "result": "no or only weak depositions of fat droplets"}, {"measurement": "deposition of fat droplets in the hepatocytes", "setting": "[2]; 0.01 mg/kg/day", "result": "no or only weak depositions of fat droplets"}, {"measurement": "hepatic damage (histopathological findings)", "setting": "[2]; compared with the rosiglitazone administration groups or the control group", "result": "free from hepatic damage"}, {"measurement": "insulin concentration in mouse plasma compared with the control group", "setting": "[3]", "result": "inhibition of a rise in insulin concentration was confirmed"}]}
